Data: patent US20170314074A1, “LPA-ASSOCIATED PROTEIN AND RNA EXPRESSION” (Intermune, Inc., priority 2014, published 2017)

How the values were obtained:
[1] = test system: fibroblasts and/or epithelial cells; assay: mRNA expression after LPA induction, Affymetrix Human Gene ST arrays, fibroblasts and/or epithelial cells (Table 3); assay type: cell-based
Description: (§1) Changes in gene expression after 3 hours of LPA induction were profiled on Affymetrix Human Gene ST 2.0 microarrays; differentially expressed genes identified by ANOVA with FDR <0.05 and fold-change >1.2. Process networks associated with differentially expressed genes were defined using MetaCore. Changes in secreted protein expression after 24 hours of LPA induction were profiled on an aptamer-based proteomic platform (1129 proteins); differentially expressed proteins identified by t-test.
(§2) Total RNA was isolated from normal human lung fibroblasts, human bronchial epithelial cells, and human pulmonary alveolar epithelial cells treated for […] with LPA and/or LPAR1 inhibitor. Each treatment condition was assayed in triplicate. Samples were profiled on Affymetrix Human Gene ST Arrays 1.0 and/or 2.0 after preparation using the Ambion WT Expression Kit according to manufacturers' instructions.
Data normalization and all subsequent analyses were performed in Partek Genomics Suite (Partek, St. Louis, Mo.). Data were normalized using the Robust Multi-array Average (RMA) algorithm. Differentially expressed genes were identified by ANOVA with correction for multiple comparisons with p-value with FDR<0.05. A fold-change cut-off was not strictly applied, although the majority of the differentially expressed genes identified have fold-changes greater than 1.2. […]

[2] = test system: normal human lung fibroblasts; assay: mRNA expression after LPA induction, Affymetrix Human Gene ST arrays, fibroblasts (Table 4A); assay type: cell-based; conditions: fibroblasts; 1 μM LPA; average of 3 experiments
Description: as §1, §2
Data normalization and all subsequent analyses were performed in Partek Genomics Suite (Partek, St. Louis, Mo.). Data were normalized using the Robust Multi-array Average (RMA) algorithm. Differentially expressed genes were identified by ANOVA with correction for multiple comparisons with p-value with FDR<0.05. A fold-change cut-off was not strictly applied, although the majority of the differentially expressed genes identified have fold-changes greater than 1.2. Genes were included if they were statistically significant for (1) LPA-induction and (2) response to treatment with an LPAR1 inhibitor.
In Tables 1-5 The differentially expressed secreted proteins set forth in Tables 1, 2, and 5 and the differentially expressed mRNAs set forth in Table 3 and 4 were identified by visual inspection of individual dot-plots.
For the gene and protein expression analysis primary fibroblasts (NHLF product #CC-2512 from Lonza group LTD) and primary epithelial cells (NHBE Product #CC-2540 from Lonza; HPAEpiC Product #3200 from Sciencell (USA, California)) were cultured as recommended by the manufacturer, except they were cultured on collagen coated plates. As part of the induction protocol cells were starved overnight in low (0.2 or 0.1% serum) or no serum (0%), prior to stimulation with LPA.

For lysophosphatidic acid [LPA], the “changes in gene expression induced by LPA” value [1] was “induced significant changes in gene expression”, the “Effect of 1 μM LPA (fold-change), BIRC3 mRNA” value [2] was 3.17 fold-change and the “Effect of 1 μM LPA (fold-change), CHIC2 mRNA” value [2] was 2.36 fold-change. The “Effect of 1 μM LPA (fold-change), CNST mRNA” value [2] was 2.26 fold-change, the “Effect of 1 μM LPA (fold-change), CTGF mRNA” value [2] was 4.71 fold-change and the “Effect of 1 μM LPA (fold-change), CYR61 mRNA” value [2] was 6.52 fold-change. The “Effect of 1 μM LPA (fold-change), DKK1 mRNA” value [2] was 6.36 fold-change, the “Effect of 1 μM LPA (fold-change), DUSP1 mRNA” value [2] was 2.76 fold-change and the “Effect of 1 μM LPA (fold-change), EFNB2 mRNA” value [2] was 2.61 fold-change. For the same substance, the “Effect of 1 μM LPA (fold-change), GPR37 mRNA” value [2] was 2.80 fold-change, the “Effect of 1 μM LPA (fold-change), HAS2 mRNA” value [2] was 2.61 fold-change and the “Effect of 1 μM LPA (fold-change), HBEGF mRNA” value [2] was 5.11 fold-change. The “Effect of 1 μM LPA (fold-change), IER3 mRNA” value [2] was 2.94 fold-change, the “Effect of 1 μM LPA (fold-change), IL6 mRNA” value [2] was 4.19 fold-change and the “Effect of 1 μM LPA (fold-change), KPRP mRNA” value [2] was 4.31 fold-change. The “Effect of 1 μM LPA (fold-change), KRTAP1-5 mRNA” value [2] was 6.49 fold-change, the “Effect of 1 μM LPA (fold-change), KRTAP4-12 mRNA” value [2] was 3.23 fold-change and the “Effect of 1 μM LPA (fold-change), LIF mRNA” value [2] was 5.15 fold-change. For the same substance, the “Effect of 1 μM LPA (fold-change), MCP-1/CCL2 mRNA” value [2] was 5.58 fold-change, the “Effect of 1 μM LPA (fold-change), MIR218-1” value [2] was 3.07 fold-change and the “Effect of 1 μM LPA (fold-change), PAI-1 mRNA” value [2] was 2.28 fold-change. For the same substance, the “Effect of 1 μM LPA (fold-change), PDCD1LG2 mRNA” value [2] was 2.52 fold-change, the “Effect of 1 μM LPA (fold-change), PTX3 mRNA” value [2] was 2.34 fold-change and the “Effect of 1 μM LPA (fold-change), SERPINB2 mRNA” value [2] was 2.44 fold-change. For the same substance, the “Effect of 1 μM LPA (fold-change), TNFAIP3 mRNA” value [2] was 3.44 fold-change, the “Effect of 1 μM LPA (fold-change), TXNIP mRNA” value [2] was −3.79 fold-change and the “Effect of 1 μM LPA (fold-change), UGCG mRNA” value [2] was 2.41 fold-change. The “Effect of 1 μM LPA (fold-change), VGLL3 mRNA” value [2] was 2.96 fold-change.
